pIC50: −log10 of the molar value.
Tests used:
[1] = target: T1, PME1 (Homo sapiens, UniProt Q9Y570); assay: EnPlex assay; type: biochemical; conditions: FP-biotin 1 μM, <5 = >50% inhibition at lowest dose 5 nM
T1 sequence (Q9Y570 1-386): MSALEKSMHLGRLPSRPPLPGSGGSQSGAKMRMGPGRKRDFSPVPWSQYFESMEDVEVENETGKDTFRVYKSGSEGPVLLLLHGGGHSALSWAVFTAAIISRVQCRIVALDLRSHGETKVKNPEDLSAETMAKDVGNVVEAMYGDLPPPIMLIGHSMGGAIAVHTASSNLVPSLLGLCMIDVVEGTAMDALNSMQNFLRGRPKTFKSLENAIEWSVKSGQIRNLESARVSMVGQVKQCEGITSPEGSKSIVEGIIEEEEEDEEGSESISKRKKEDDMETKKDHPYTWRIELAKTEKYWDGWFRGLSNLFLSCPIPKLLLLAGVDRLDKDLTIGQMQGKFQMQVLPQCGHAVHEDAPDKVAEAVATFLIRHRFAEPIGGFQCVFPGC

[2] = Oral glucose tolerance test; type: in vivo, C57BL/6 mice; conditions: mice, oral gavage 1 h before dextrose 5 g/kg; listed as ARI-2243
[3] = Adverse effects in mice; type: in vivo

SMILES	pIC50 [1]	Anti-hyperglycemic activity in oral glucose tolerance test [2]	Adverse effects in mice [3]
COC(=O)N1C(=O)[C@](c2ccccc2)(C2CCCC2)N1C(=O)OC [ABL127]	7.92		
CC(N)C(=S)N1CCCC1B(O)O (stereo not drawn) [Compound 24, Ala-boroPro thioxoamide]		highly effective and essentially equal anti-hyperglycemic glycemic activity	no significant adverse effects
